Tests used:
[1] = system: CHO-MG cells; test: Rescue by exogenous native polyamines in CHO-MG cells; assay type: cell-based, Chinese hamster; conditions: toxic concentration of compound 10 (results not shown)
[2] = target: T1, LAT-1 (Homo sapiens, UniProt Q01650); test: 3H-Leucine uptake assay; assay type: cell-based; conditions: L3.6pl cells, increasing concentration, 15 min uptake (FIG. 10D, 10E)
T1 construct: endogenous in cells; host or cells: L3.6pl human pancreatic cancer cells
Description: ^3H-Leucine uptake experiments were performed according to the protocol developed by Hälfliger et al. (2018) (referenced below with the following changes. Briefly, cells were seeded at 60% confluency in a 24-well plate and incubated for 4 h at 37° C. After 4 hours, different concentrations of compound 10 were added and the cells were then incubated overnight. L-^3H-leucine uptake inhibition was measured for 15 minutes using a 12 μM stock of L-[^3H]leucine (79 Ci/mmol). The final concentration of ^3H-leucine in each well was 1.2 uM. This concentration produced a CPM reading of ˜4000 cpm for the control. Uptake was terminated by removing the buffer solution followed by washing the cells with cold Na^+-free Hank's Balanced Salt Solution. Cells were then lysed to give ˜500 μL of cell lysate. A portion of the cell lysate (200 μL) was mixed with Scintiverse™ BD Cocktail for determining radiocounts. The radioactivity was measured with a scintillation counter (Beckman Coulter LS 6500 Multi-Purpose Scintillation Counter). Another portion of the cell lysate (300 μL) was used for protein determination using the BCA method. The final data was expressed as cpm/microgram of protein to account for the different number of cells remaining after the experiment. This was necessary because compound 10 was toxic and less cells were present after the overnight incubation (24 h). […]

[3] = target: T1, LAT-1; test: 3H-Leucine efflux assay; assay type: cell-based; conditions: L3.6pl
Source text: JPH203 is not toxic to L3.6pl cells over this concentration range and time interval. FIG. 10E is an example according to various embodiments, illustrating results obtained for a Leu uptake inhibition experiment with compound 10. Note: the y-axis in FIG. 10E is in CPM per ug of protein to normalize the data and account for any potential losses of cells due to toxicity of compound 10. FIG. 10F is an example according to various embodiments, illustrating results obtained for a Leucine efflux experiment with LAT-1 inhibitor JPH-203. Briefly, the efflux procedure involved cells pre-incubated with ‘hot’ leucine (3H labeled) and washed to remove unbound radiolabeled Leucine. The cells were then incubated in the presence and absence of unlabeled Leucine (100 μM) and/or the LAT-1 inhibitor JPH-203 (30 μM). In the presence of unlabeled leucine, the cells released ‘hot’ 3H-leucine into the media which was measured via scintillation/radioactivity counts. This efflux or release from within the cell was inhibited by the presence of the LAT-1 inhibitor, JPH-203 (30 μM, FIG. 10F). Since JPH203 inhibits the import of unlabeled leucine then less unlabeled Leucine will enter the cell and less efflux of radiolabeled Leucine molecules from inside the cell will be observed. This is consistent with JPH-203 being a LAT-1 inhibitor. FIG. 10G is an example according to various embodiments, illustrating results obtained for a two minute Leucine efflux experiment with compound 10. Cells were pre-incubated with ‘hot’ leucine (^3H labeled) and washed to remove unbound radiolabeled Leucine. The cells were then incubated in the presence and absence of unlabeled “cold” Leucine (100 μM) and/or the compound 10 (20 μM). In the presence of unlabeled ‘cold’ leucine, the cells released ‘hot’ ^3H-leucine into the media which was measured via scintillation/radioactivity counting. […] The efflux experiment was repeated and the time for monitoring efflux increased to 30 minutes. […] In summary, compound 10 inhibits Leucine uptake and facilitates LAT-1 mediated efflux.
^3H-Leucine Efflux Assay ^3H-Leucine efflux experiments were performed according to the protocol developed by Hälfliger et al. (2018) (referenced below) with the following changes. Briefly, cells were preloaded with 12 μM stock of L-[^3H]leucine (79 Ci/mmol) to give a final concentration of ^3H-leucine was 1.2 μM in each well. […] The medium was then collected and mixed with scintillation fluid (Scintiverse™ BD Cocktail) and radioactivity measured (Beckman Coulter LS 6500 Multi-Purpose Scintillation Counter). […] The lysate (300 μL) was mixed with scintillation fluid and radioactivity was counted. Relative efflux was expressed as percentage radioactivity=100%×(radioactivity of medium)/(radioactivity of the medium+radioactivity of the cells). […]

T1 sequence (Q01650 whole entry): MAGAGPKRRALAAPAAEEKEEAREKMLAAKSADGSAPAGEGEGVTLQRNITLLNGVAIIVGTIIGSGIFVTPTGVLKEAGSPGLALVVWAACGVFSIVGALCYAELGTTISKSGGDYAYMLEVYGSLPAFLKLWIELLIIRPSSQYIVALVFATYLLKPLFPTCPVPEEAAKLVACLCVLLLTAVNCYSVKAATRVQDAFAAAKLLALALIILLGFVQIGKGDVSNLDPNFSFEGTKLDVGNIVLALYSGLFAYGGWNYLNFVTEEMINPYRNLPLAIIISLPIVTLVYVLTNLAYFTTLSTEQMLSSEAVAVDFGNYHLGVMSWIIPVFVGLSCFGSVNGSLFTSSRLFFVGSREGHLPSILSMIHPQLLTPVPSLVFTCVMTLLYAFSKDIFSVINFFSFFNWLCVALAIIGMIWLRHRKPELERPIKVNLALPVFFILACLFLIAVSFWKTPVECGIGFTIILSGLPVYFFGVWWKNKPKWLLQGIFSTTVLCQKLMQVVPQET
T1 sequence (P08195 102-630 partner): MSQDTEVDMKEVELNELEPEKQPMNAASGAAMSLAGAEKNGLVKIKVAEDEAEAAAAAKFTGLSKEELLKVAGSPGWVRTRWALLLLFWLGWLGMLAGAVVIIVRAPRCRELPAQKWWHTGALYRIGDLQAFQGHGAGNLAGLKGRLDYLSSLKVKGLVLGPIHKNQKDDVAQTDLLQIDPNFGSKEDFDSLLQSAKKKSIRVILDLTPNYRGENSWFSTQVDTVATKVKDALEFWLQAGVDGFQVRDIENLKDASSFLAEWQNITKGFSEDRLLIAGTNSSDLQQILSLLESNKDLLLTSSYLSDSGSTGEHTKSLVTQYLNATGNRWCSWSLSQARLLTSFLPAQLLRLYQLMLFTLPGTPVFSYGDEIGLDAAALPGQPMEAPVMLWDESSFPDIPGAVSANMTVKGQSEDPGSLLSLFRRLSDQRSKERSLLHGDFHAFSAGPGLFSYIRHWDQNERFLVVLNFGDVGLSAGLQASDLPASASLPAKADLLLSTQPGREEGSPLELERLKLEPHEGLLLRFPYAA

3H-Leucine uptake [2]: able to inhibit the uptake
3H-leucine efflux, compound alone ([3]; 2 min, JPH-203 30 μM or compound 10 20 μM): slight increase in efflux
efflux of radiolabeled leucine ([3]; 30 minutes, in presence and absence of leucine (1 μM), vs untreated control (FIG. 10H)): increased efflux
Structure (SMILES): CC(C)CCN1CCN(C(CNCc2ccccc2)CC2CCCCC2)CC1CC(C)C.Cl.Cl.Cl (stereo not shown) [Compound 10, Benzyl-{3-cyclohexyl-2-[3-isobutyl-4-(3-methyl-butyl)-piperazin-1-yl]-propyl}-amine trihydrochloride salt]
rescue of treated cells by native polyamines [1]: unable to rescue

From US20210317090A1, “AMINO ACID DEPLETION AGENTS AS ANTIPROLIFERATIVE AGENTS” (University of Central Florida Research Foundation, Inc., priority 2018, published 2021)
